Read-outs that look alike come from different tables or passages of the source. Ends that are not written are not given here.
Experiments:
[1] = tested on: Normal Human Epidermal Keratinocytes (NHEK); assay: Comet assay of DNA fragmentation in NHEK exposed to UVB (Test Example 1); assay type: cell-based; conditions: FIG. 1
Method: This study used control samples and three types of test samples. Control samples were neither treated with the peptide, nor exposed to UVB radiation. Type 1 samples were treated with the peptide, as described below, but not exposed to UVB radiation. Type 2 samples were not treated with the peptide, but were exposed to UVB radiation. Type 3 samples were treated with the peptide, as described below, and exposed to UVB radiation. SIRT6 activating peptide (SEQ ID No. 1) in powdered form was prepared in solution at 50 ppm.
For all test samples, Normal Human Epidermal Keratinocytes (NHEK) were seeded on Trevigen Flare™ slides at 8,000 cells/spot for DNA fragmentation analysis. Cells were incubated at 37° C., 95% humidity and 5% CO2 in cell culture media for 24 hours. Type 1 and type 3 samples were treated with the 50 ppm powdered peptide solution at 3% of the cell culture media (equivalent to 0.00015% of peptide in solution), and all samples were incubated for 48 hours. Thereafter, the cell culture media was removed from all samples and replaced with 100 μl of Dulbecco's Phosphate Buffered Saline. […]
Following the six hour incubation, the sample cells were washed with phosphate buffered saline. […] The tail moments were analyzed with the Comet Score software from TriTek, Corp (Sumerduck, Va.). […]

[2] = tested on: sirtuin 6; conditions: cited from earlier work; for sirtuin 6 expression: short-term cultures
[3] = tested on: SIRT6; conditions: Normal Human Epidermal Keratinocytes (NHEK); cited from earlier work

Gly-Ala-Gly-Val-Ser-Ala-Glu-NH2 (GAGVSAE-NH2) [SEQ ID No. 1]
DNA fragmentation (comet tail moment) ([1]; type 1 samples: NHEK treated with peptide (0.00015% in solution), not irradiated): comparable to the control samples | DNA fragmentation (comet tail moment) ([1]; type 3 samples: NHEK pre-treated with peptide 48 h (0.00015%), 20 mJ/cm^2 UVB, post-treated 6 h): comparable to the control samples | sirtuin 6 expression stimulation effect, long term ([2]; long term cultures): maintained for the long term | sirtuin 6 expression ([2]; normal human fibroblasts): increase sirtuin 6 expression very significantly | sirtuin 6 expression ([2]; normal human keratinocytes): increase sirtuin 6 expression very significantly | SIRT6 expression [3]: dose dependent increase in SIRT6 expression
